Values joined by “and” are separate entries in the source; they are usually repeats but may differ in a detail not shown here. Equal values may be shown once. “Also recorded” adds a separate entry of the source.
Legend:
[1] = target: T1, hSlo α subunit large conductance calcium-activated potassium (BK) channels (Homo sapiens, UniProt Q12791); experiment: Inside-out patch clamp of hSlo α subunit BK channels expressed in HEK293 cells; format: cell-based; conditions: for BK channel current as fraction of the control response: α subunit
T1 construct: expressed in transfected cells; host or cells: HEK293 (transient; co-transfected with CD4 as a marker)
Protocol: In this experiment, hSlo α subunit large conductance calcium-activated potassium (BK) channels with an N-terminal c-myc tag in the mammalian vector pcDNA (Meera et al, 1997) were transiently expressed in human embryonic kidney cells (cell type HEK293).
Human embryonic kidney cells were grown in a mix of DMEM (Dulbecco's Modified Eagle Medium, GibcoBRL Cat#12100-038) and 2.5 mM HEPES (N-[2-Hydroxyethyl]piperazine-N′-[2-ethanesulfonic acid]), supplemented with minimal essential amino acids and 10% fetal bovine serum.
Cells were subsequently plated into 24-well plates, grown to 95% confluency and transfected 24 hours later with 10 μg of hSlo and 2 μg CD4 (pcDNA) and 2 µl Lipofectamine 2000™.
Cells were plated onto cover slips 24 hours later. CD4 antibody-labelled beads were used to identify transfected cells. Macroscopic currents were recorded from excised inside-out patches at 3 days post-transfection.
A stock of 100 μM Lolitrem B was made up in dimethyl sulfoxide (DMSO). This was diluted to the appropriate concentration in electrophysiological solutions.
The bath solution that was applied to the internal side of the cell membrane of the inside-out membrane patch was (mM): 140 KMeSO3, 2 KCl, 20 HEPES (N-[2-Hydroxyethyl]piperazine-N′-[2-ethanesulfonic acid]), 5 HEDTA (N-([2-hydroxyethyl)ethylene-diaminetriacetic acid) and 3.65 CaCl2 to give 10 μM free calcium with a pH of 7.2.
The pipette solution applied to the extemal side of the cell membrane of the inside-out membrane patch was (mM): 140 KMeSO3, 2 KCl, 20 HEPES, and 2 MgCl2, with a pH of 7.2.
Macroscopic currents were recorded in an inside-out patch-clamp configuration using an amplifier, interface and data collection software. Data were filtered at 5 kHz and sampled at 20 μs intervals. Fast capacitance compensation was used to cancel the fast transient. Leak subtraction was used although the background potassium current was small.
Channels were activated by voltage pulses to +150 mV every minute in the presence of 10 μM free calcium. Control current responses were recorded over 5 minutes. Only patches that remained stable over this time were used in experiments.
Each concentration of lolitrem B was applied for 5 minutes or until the current response had stabilised and fractional block calculated as the decrease in current as a fraction of the control. The current amplitude was the mean current over the last half of the voltage pulse to +150 mV.

mice = conditions: known from literature (Munday-Finch); cited from earlier work
α+β1 BK channels = target: T2, α+β1 BK channels (Homo sapiens, UniProt Q12791); experiment: Patch clamp of α+β1 BK channels expressed in human embryonic kidney cells; format: cell-based; conditions: for IC50: IC50, α + β1, +150 mV, 10 μM internal free calcium; for h = Hill coefficient: α + β1
T2 construct: expressed in transfected cells; host or cells: human embryonic kidney cells (HEK293)
Protocol: (§1) Current amplitude (I′) 5 minutes after addition of increasing lolitriol concentrations, shown as a fraction of the control response. Lolitriol was applied to α+β1 channels (solid circles) and to α+β4 channels (open circles). 31-epilolitrem B was applied to α+β1 channels (solid triangles) and to α+β4 channels (open triangles). Shaded triangles are data points from a single cell to which the curve was fitted. Lolitrem B was applied to hSlo channels (solid squares) a previous study and is shown for comparison. The current response was averaged over the last half of a voltage pulse to +150 mV for 50 ms, with 10 μM internal free calcium. The vertical bars show ±1 S.E.M. in 3 or more cells. The curve is a fit of a Hill-type equation to the data.
(§2) We used BK channels containing beta subunits that are expressed in smooth muscle ([…]) and brain (β4). BK channels with subunit combinations α+β1 or α+β4 were expressed in human embryonic kidney cells and their function assayed by patch clamping.
(§3) hSlo α subunit large conductance calcium-activated potassium channels in pcDNA3 (Meera et al., 1997) together with the human β4 subunit in pEGFP-N1 were transiently expressed in human embryonic kidney cells (HEK293). HEK cells were grown in a mix of DMEM (Dulbecco's Modified Eagle Medium) and 2.5 mM HEPES (N-[2-Hydroxyethyl]-piperazine-N′-[2-ethanesulfonic acid]), supplemented with minimal essential amino acids and 10% fetal bovine serum. Cells were subsequently plated onto 24-well plates, grown to 95% confluency and transfected 24 hours later with 10 μg of hSlo, 8 μg of β4 and 2 μl Lipofectamine 2000™. Cells were plated onto cover slips 24 hours later. Transfected cells expressed green fluorescent protein and were identified under UV light by their fluorescence.

[2] = target: T3, α+β4 BK channels (hSlo α subunit with human β4 subunit) (Homo sapiens, UniProt Q12791); experiment: Patch clamp of α+β4 BK channels expressed in human embryonic kidney cells; format: cell-based; conditions: for h = Hill coefficient: α + β4
T3 construct: expressed in transfected cells; host or cells: HEK293 (transient)
Protocol: as §1, §2, §3

BK channel [3] = target: T4, BK channel (Homo sapiens, UniProt Q12791); experiment: Degree of antagonist inhibition of BK channels, subunit composition not stated; format: cell-based
BK channel [4] = target: T4, BK channel; conditions: McMillan et al., 2003; cited from earlier work

T2 sequence (Q12791 whole entry): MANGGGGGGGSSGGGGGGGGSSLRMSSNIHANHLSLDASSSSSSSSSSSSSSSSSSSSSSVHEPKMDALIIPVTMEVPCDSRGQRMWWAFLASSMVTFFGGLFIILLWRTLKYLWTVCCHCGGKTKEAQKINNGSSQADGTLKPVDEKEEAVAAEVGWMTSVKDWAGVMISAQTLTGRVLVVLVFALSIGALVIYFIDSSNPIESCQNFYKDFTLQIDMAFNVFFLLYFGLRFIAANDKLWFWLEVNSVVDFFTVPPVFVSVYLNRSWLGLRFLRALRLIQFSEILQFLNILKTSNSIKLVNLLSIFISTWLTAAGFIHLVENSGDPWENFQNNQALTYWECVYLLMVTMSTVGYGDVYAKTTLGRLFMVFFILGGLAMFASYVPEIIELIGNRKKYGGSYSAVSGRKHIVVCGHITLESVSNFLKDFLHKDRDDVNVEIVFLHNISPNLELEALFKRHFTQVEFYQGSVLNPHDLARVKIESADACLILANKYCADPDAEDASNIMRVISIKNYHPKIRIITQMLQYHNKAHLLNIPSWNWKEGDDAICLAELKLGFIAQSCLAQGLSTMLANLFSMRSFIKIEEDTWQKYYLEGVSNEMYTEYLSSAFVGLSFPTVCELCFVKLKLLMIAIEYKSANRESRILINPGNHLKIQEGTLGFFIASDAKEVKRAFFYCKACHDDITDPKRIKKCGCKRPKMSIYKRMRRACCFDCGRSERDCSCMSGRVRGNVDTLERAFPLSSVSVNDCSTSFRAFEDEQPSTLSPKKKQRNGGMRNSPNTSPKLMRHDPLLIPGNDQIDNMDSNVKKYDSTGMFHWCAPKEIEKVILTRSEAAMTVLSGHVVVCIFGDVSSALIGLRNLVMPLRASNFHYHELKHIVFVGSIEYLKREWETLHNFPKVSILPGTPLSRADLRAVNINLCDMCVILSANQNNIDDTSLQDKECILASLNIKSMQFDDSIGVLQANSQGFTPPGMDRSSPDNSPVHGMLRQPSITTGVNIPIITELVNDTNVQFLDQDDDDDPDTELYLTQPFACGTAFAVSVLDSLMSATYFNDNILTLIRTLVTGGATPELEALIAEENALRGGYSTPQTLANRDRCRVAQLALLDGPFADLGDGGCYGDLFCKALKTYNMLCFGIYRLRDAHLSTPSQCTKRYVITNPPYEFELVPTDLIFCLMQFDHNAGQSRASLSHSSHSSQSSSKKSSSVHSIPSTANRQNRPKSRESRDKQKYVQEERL
T2 sequence (Q16558 whole entry partner): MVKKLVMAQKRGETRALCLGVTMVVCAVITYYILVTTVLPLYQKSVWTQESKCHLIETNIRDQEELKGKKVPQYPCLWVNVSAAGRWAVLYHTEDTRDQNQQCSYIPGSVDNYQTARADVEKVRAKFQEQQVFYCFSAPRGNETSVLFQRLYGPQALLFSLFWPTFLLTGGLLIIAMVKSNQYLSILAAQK
T1 sequence (Q12791 whole entry): as the sequence (Q12791 whole entry) above
T3 sequence (Q12791 whole entry): as above
T3 sequence (Q86W47 whole entry partner): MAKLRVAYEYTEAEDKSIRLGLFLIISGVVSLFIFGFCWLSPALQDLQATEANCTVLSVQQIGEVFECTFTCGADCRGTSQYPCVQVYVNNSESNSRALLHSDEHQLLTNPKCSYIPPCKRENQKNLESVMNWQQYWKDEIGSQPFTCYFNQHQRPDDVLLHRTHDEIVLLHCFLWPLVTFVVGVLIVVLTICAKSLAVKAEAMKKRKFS
T4 sequence (Q12791 whole entry): as the sequence (Q12791 whole entry) above

Molecule	BK channel current as fraction of the control response ([1]; 100 nM)	tremorgenicity (mice)	IC50 (α+β1 BK channels)	h = Hill coefficient (α+β1 BK channels)	h = Hill coefficient [2]	other results
CC(C)=CCOC(C)(C)[C@H]1O[C@H]2CC[C@@]3(C)[C@@](O)(CC[C@H]4Cc5c([nH]c6ccc7c(c56)C[C@@H]5[C@@H](C7=O)C(C)(C)OC5(C)C)[C@@]43C)[C@]23O[C@@H]3[C@@H]1O [lolitrem E]	0.01	partial-tremorgenic	–	–	–	degree of antagonist inhibition ([1]; approximately 100 nM): approximately 100%
CC(C)=CC1OC2C(OC3CCC4(C)C5(C)c6[nH]c7ccc8c(c7c6CC5CCC4(O)C34OC24)CC2C(C8=O)C(C)(C)OC2(C)C)C(C)(C)O1 (centres unmarked) [31-epilolitrem B]	0.06±0.02	non-tremorgenic	~58 nM and 58 nM	2.7	2.2	current response as fraction of control after wash-out ([1]; after 100 nM, wash-out with control solution for 26 minutes, one experiment): 0.59; degree of antagonist inhibition (BK channel [3]; approximately 200 nM): approximately 100%
desoxypaxilline [reference compound]	–	non-tremorgenic	–	–	–	concentration needed for the same degree of BK inhibition as paxilline (BK channel [4]): 24 times
CC(C)(O)C1OC2CCC3(C)C4(C)c5[nH]c6ccc7c(c6c5CC4CCC3(O)C23OC3C1O)CC1C(C7=O)C(C)(C)OC1(C)C (centres unmarked) [lolitriol]	0.29	non-tremorgenic	~195 nM and 195 nM	2.3	2.7	BK channel current as fraction of the control response ([1]; 200 nM): 0.25; current response as fraction of control after wash-out ([1]; wash-out with control solution for 30 minutes at 4 ml/min): 0.86; concentration required to inhibit α+β4 channels compared with α+β1 channels ([2]; α+β4 versus α+β1): Twice; degree of antagonist inhibition (BK channel [3]; approximately 1000 nM): approximately 100%
CC(C)=CC1OC2C(OC3CCC4(C)C5(C)c6[nH]c7ccc8c(c7c6CC5CCC4(O)C34OC24)CC2C(C8=O)C(C)(C)OC2(C)C)C(C)(C)O1 (centres unmarked) [lolitrem B]	–	tremorgenic	–	–	–	inhibition of the BK channel current (in words) ([1]; 2 nM): partial inhibition; reversal of current block by wash-out ([1]; 10 nM or greater, wash-out with control solution for 30 minutes at 4 ml/min): not able to be reversed; also recorded: could not be reversed; inhibition of the BK channel current (in words) ([1]; 20 nM applied to the perfusion bath): complete inhibition; IC50 ([1]; IC50 (concentration of half maximal inhibition), α alone, voltage pulse to +150 mV, 10 μM free calcium, Hill equation fit, 11 cells): 3.7 nM and ~3.7 nM; degree of antagonist inhibition ([1]; approximately 20 nM): approximately 97%; h = Hill coefficient ([1]; α alone): 1.7
CC1(C)OC(C)(C)C2C(=O)c3ccc4[nH]c5c(c4c3CC21)C[C@@H]1CC[C@@]2(O)C3=CC(=O)[C@@H](C(C)(C)O)OC3CC[C@]2(C)[C@@]51C (some centres unmarked) [lolilline]	–	non-tremorgenic	–	–	–	–

— patent publication US20070191465A1, “Channel blocking compounds” (priority 2003, published 2007)
